Results: article PMC4770093, “The role of kinetic context in apparent biased agonism at GPCRs” (Nature Communications, 2016)
“And” between values parts separate entries of the source, which are not always exact repeats. Identical values can stand only once. Like-named read-outs stand apart in the source and are kept apart here.

How the values were obtained:
[1] = target: SNAP-tagged human dopamine D2L (Homo sapiens, UniProt P14416); assay: Tag-lite PPHT-red competition kinetic binding (HTRF); conditions: PPHT-red tracer, Tag-lite
Description: To terbium label the SNAP-CHO-D2L cells, cell culture medium was removed from the T175 cm^2 flasks containing confluent adherent SNAP-CHO-D2L cells. Twelve millilitres of Tag-lite labelling medium containing 100 nM of SNAP-Lumi4-Tb was added to the flask and incubated for 1 h at 37 °C under 5% CO2. Cells were then washed 2 × in 15 ml PBS (GIBCO, Invitrogen, Paisley, UK) to remove the excess of SNAP-Lumi4-Tb and detached using 5 ml of enzyme-free Hank's-based cell dissociation buffer (GIBCO, Invitrogen, Paisley, UK) and collected in a vial containing 5 ml of DMEM/Nutrient F-12 Ham, 2 mM glutamine supplemented 10% FCS. Cells were pelleted by centrifugation (5 min at 1,500 r.p.m.) and the pellets were frozen to −80 °C before preparation of membranes.
All subsequent steps described were conducted at 4 °C, to avoid receptor degradation. Twenty millilitres of wash buffer (10 mM HEPES and 10 mM EDTA pH 7.4) was added to the pellet of terbium-labelled cells (equivalent to 1 × t175 cm^2). […] The supernatant was discarded and the pellet was homogenized and centrifuged as described above in wash buffer. The final pellet was suspended in ice-cold 10 mM HEPES and 0.1 mM EDTA pH 7.4, at a concentration of 5–10 mg m^−1. Protein concentration was determined by the bicinchoninic acid assay using BSA as a standard and aliquots maintained at −80 °C until required. Before their use, the frozen membranes were thawed and the membranes suspended in the assay buffer at a membrane concentration of 0.1 mg m^−1.
GppNHp was included to remove the G protein-coupled population of receptors that can result in two binding sites in membrane preparations, because the Motulsky–Mahan model is only appropriate for ligands competing at a single site. […] Both fluorescent ligands and unlabelled compounds were diluted in the binding assay buffer.
Kinetics acquisitions at intervals of 20 s were recorded using the standard settings of the reader for HTRF measurements. […] Specific binding was determined by subtracting the nonspecific HTRF ratio from the total HTRF ratio.
To accurately determine association rate (kon) and dissociation rate (koff) values, the observed rate of association (kob) was calculated using at least four different concentrations of PPHT-red. The appropriate concentration of PPHT-red was incubated in a 384-well Optiplate with human SNAP-D2LR-CHO cell membranes (2 μg per well) in assay binding buffer at 37 °C (final assay volume, 40 μl). The degree of PPHT-red bound to the receptor was assessed at multiple time points by HTRF detection, to allow construction of association kinetic curves. The resulting data were globally fitted to the association kinetic model (equation (8)) to derive a single best-fit estimate for kon and koff as described under ‘Data analysis'.
On the same 384-well Optiplate plate, the kinetic parameters of unlabelled ligand were assessed using a competition kinetic binding assay. This approach involves the simultaneous addition of both fluorescent ligand and competitor to receptor preparation so that at t=0 all receptors are unoccupied. […] The degree of PPHT-red bound to the receptor was assessed at multiple time points by HTRF detection. Nonspecific binding was determined as the amount of HTRF signal detected in the presence of spiperone (1 μM) and was subtracted from each time point. Each time point was conducted on the same 384-well plate incubated at 37 °C with shaking (100 r.p.m.) after every cycle.
Data were globally fitted using equation (7), to simultaneously calculate kon and koff.

D2R = assay: Simulation of receptor occupancy over time from kon and koff; conditions: simulation with a KD concentration of each agonist
Description: We extended these studies with a Tag-lite receptor binding assay using a D2R construct with an amino-terminal SNAP tag and the fluorescently labelled agonist (±)-4′-amino-2-(N-phenethyl-N-propyl)-amino-5-hydroxytetralin (PPHT). […] The association rate of a ligand is often thought to be diffusion limited. […] Using these kinetic parameters, we performed a simulation to estimate the receptor occupancy of a KD concentration of each agonist over time (Fig. 4e).
Kinetic binding parameters of kon (a), koff (b) and t1/2 (c) were determined in a competition kinetic binding assay using a Tag-lite binding assay and the fluorescently labelled agonist PPHT as the tracer ligand (Supplementary Table 6). […] All values are expressed as mean±s.e.m. from three experiments. (e) The values of kon and koff obtained in the competition kinetic assay were used to simulate receptor occupancy over time using equation (9) and the concentration of ligand equivalent to its KD (see Supplementary Table 6).
where Ymax reflects maximum binding of a concentration of ligand and kob is determined by equation (8).

D2LR [2] = target: T1, D2LR (Homo sapiens, UniProt P14416); assay: Gαi1 G protein activation (BRET); type: cell-based; design: expressed in transfected cells; conditions: 5 minute timepoint
Description: G protein activation. Flp-In-CHO cells stably expressing the D2LR were seeded at a density of 2,000,000 cells per 10-cm dish and were transfected the following day using polyethylenimine as the transfection reagent. […] Twenty-four hours after transfection, the cells were plated into 96-well CulturPlates (PerkinElmer) and grown overnight. The cells were equilibrated in Hank's balanced salt solution at 37 °C before starting the experiment. The cells were stimulated with the agonists for the indicated timeframes when the BRET readings were captured. Coelenterazine (Promega) was added at a final concentration of 5 μM at least 3 min before measurement. […] Net BRET was determined by subtraction of the vehicle control from the agonist-induced response.

D2LR [3] = target: T1, D2LR; assay: Inhibition of forskolin-induced cAMP production (BRET CAMYEL biosensor); conditions: for EC50: pEC50 cAMP; for Emax: relative to the maximal response of ropinirole; for Inhibition of cAMP production measured using a CAMYEL BRET biosensor, Net BRET: single experiments n = 1, 2, 3
Description: Flp-In-CHO cells stably expressing the D2LR were seeded at a density of 2,000,000 cells per 10-cm dish and were transfected the following day using polyethylenimine as the transfection reagent. The cells were transfected with 3 μg CAMYEL, to allow the detection of cAMP levels within the cells. Twenty-four hours after transfection, the cells were plated into 96-well CulturPlates (PerkinElmer) and grown overnight. The cells were equilibrated in Hank's balanced salt solution at 37 °C (or 25 °C when indicated) before starting the experiment. The cells were co-stimulated with the agonists and 10 μM forskolin for the indicated timeframes when the BRET readings were captured. Coelenterazine (Promega) was added at a final concentration of 5 μM at least 3 min before measurement. […] Net BRET was determined by subtraction of the vehicle control co-added with 10 μM forskolin.

T1 sequence (P14416 whole entry): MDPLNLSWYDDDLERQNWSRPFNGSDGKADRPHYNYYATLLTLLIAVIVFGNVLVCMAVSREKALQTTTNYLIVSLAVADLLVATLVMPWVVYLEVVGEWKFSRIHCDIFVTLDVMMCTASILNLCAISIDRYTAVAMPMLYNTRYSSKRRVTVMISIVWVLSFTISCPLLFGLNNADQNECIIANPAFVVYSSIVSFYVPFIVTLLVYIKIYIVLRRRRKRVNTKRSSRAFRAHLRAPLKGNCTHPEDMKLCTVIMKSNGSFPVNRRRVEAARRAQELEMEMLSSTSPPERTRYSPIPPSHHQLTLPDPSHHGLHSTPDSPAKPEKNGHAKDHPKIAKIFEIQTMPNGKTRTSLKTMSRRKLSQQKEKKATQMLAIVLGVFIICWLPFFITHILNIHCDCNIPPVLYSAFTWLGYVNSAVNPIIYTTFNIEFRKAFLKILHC
SNAP-tagged human dopamine D2L, sequence (P14416 whole entry): as above

O=c1[nH]c2cccc(N3CCN(Cc4cccc(-c5ccccc5)c4)CC3)c2o1 [Bifeprunox, bifeprunox]
koff ([1]; 100 μM GppNHp, 37 °C, read-out: koff (converted)): 0.000167 s⁻¹
Kd ([1]; read-out: pKd (affinity determined from kinetic parameters) (converted)): 0.0501 nM
time to maximal receptor occupancy (D2R): > 90 min
Log(τ/KA) Gαi1 activation (D2LR [2]; Flp-In-CHO-D2LR): 8.60 ± 0.11
ΔLog(τ/KA) Gαi1 activation (D2LR [2]; dopamine as reference agonist): 1.43 ± 0.14
Log(τ/KA) cAMP (D2LR [3]; 5 minute timepoint, Flp-In-CHO-D2LR): 7.88 ± 0.05
ΔLog(τ/KA) cAMP (D2LR [3]; 5 minute timepoint, dopamine as reference agonist): -0.18 ± 0.07
EC50 (D2LR [3]; 2 min): 25.1 nM
EC50 (D2LR [3]; 5 min): 12.3 nM
EC50 (D2LR [3]; 10 min): 7.41 nM
EC50 (D2LR [3]; 15 min): 5.37 nM
EC50 (D2LR [3]; 30 min): 2.4 nM
EC50 (D2LR [3]; 45 min): 2.75 nM
EC50 (D2LR [3]; 60 min): 3.09 nM
EC50 (D2LR [3]; 75 min): 1.58 nM
EC50 (D2LR [3]; 90 min): 2.04 nM
Emax (D2LR [3]; read-out: Emax cAMP, 2 min): 89 ± 2%
Emax (D2LR [3]; read-out: Emax cAMP, 5 min): 92 ± 2%
Emax (D2LR [3]; read-out: Emax cAMP, 10 min): 91 ± 2%
Emax (D2LR [3]; read-out: Emax cAMP, 15 min): 89 ± 2.4%
Emax (D2LR [3]; read-out: Emax cAMP, 30 min): 89 ± 1.7%
Emax (D2LR [3]; read-out: Emax cAMP, 45 min): 88 ± 2%
Emax (D2LR [3]; read-out: Emax cAMP, 60 min): 81 ± 2%
Emax (D2LR [3]; read-out: Emax cAMP, 75 min): 90 ± 2.5%
Emax (D2LR [3]; read-out: Emax cAMP, 90 min): 88 ± 2.5%
Inhibition of cAMP production measured using a CAMYEL BRET biosensor, Net BRET (D2LR [3]; time 2.21667 mins): 0.08914 and 0.1211 and 0.09318
Inhibition of cAMP production measured using a CAMYEL BRET biosensor, Net BRET (D2LR [3]; time 2.58333 mins): 0.103 and 0.1317 and 0.09421
Inhibition of cAMP production measured using a CAMYEL BRET biosensor, Net BRET (D2LR [3]; time 2.95 mins): 0.1113 and 0.1351 and 0.0964
Inhibition of cAMP production measured using a CAMYEL BRET biosensor, Net BRET (D2LR [3]; time 3.31667 mins): 0.1109 and 0.1416 and 0.1166
Inhibition of cAMP production measured using a CAMYEL BRET biosensor, Net BRET (D2LR [3]; time 3.68333 mins): 0.1141 and 0.143 and 0.1124
Inhibition of cAMP production measured using a CAMYEL BRET biosensor, Net BRET (D2LR [3]; time 4.05 mins): 0.1231 and 0.1563 and 0.1162
Inhibition of cAMP production measured using a CAMYEL BRET biosensor, Net BRET (D2LR [3]; time 4.41667 mins): 0.1255 and 0.1611 and 0.116
Inhibition of cAMP production measured using a CAMYEL BRET biosensor, Net BRET (D2LR [3]; time 4.78333 mins): 0.1306 and 0.1617 and 0.1229
Inhibition of cAMP production measured using a CAMYEL BRET biosensor, Net BRET (D2LR [3]; time 5.15 mins): 0.1492 and 0.1604 and 0.1179
Inhibition of cAMP production measured using a CAMYEL BRET biosensor, Net BRET (D2LR [3]; time 5.51667 mins): 0.135 and 0.1611 and 0.1193
Inhibition of cAMP production measured using a CAMYEL BRET biosensor, Net BRET (D2LR [3]; time 5.88333 mins): 0.1401 and 0.1595 and 0.123
Inhibition of cAMP production measured using a CAMYEL BRET biosensor, Net BRET (D2LR [3]; time 6.25 mins): 0.1298 and 0.1539 and 0.1222
Inhibition of cAMP production measured using a CAMYEL BRET biosensor, Net BRET (D2LR [3]; time 6.61667 mins): 0.1365 and 0.1594 and 0.1215
Inhibition of cAMP production measured using a CAMYEL BRET biosensor, Net BRET (D2LR [3]; time 6.98333 mins): 0.1365 and 0.1586 and 0.1225
Inhibition of cAMP production measured using a CAMYEL BRET biosensor, Net BRET (D2LR [3]; time 7.35 mins): 0.1382 and 0.1575 and 0.1195
Inhibition of cAMP production measured using a CAMYEL BRET biosensor, Net BRET (D2LR [3]; time 7.71667 mins): 0.1358 and 0.1585 and 0.1189
Inhibition of cAMP production measured using a CAMYEL BRET biosensor, Net BRET (D2LR [3]; time 8.08333 mins): 0.1415 and 0.1636 and 0.1191
Inhibition of cAMP production measured using a CAMYEL BRET biosensor, Net BRET (D2LR [3]; time 8.45 mins): 0.1387 and 0.16 and 0.1143
Inhibition of cAMP production measured using a CAMYEL BRET biosensor, Net BRET (D2LR [3]; time 8.81667 mins): 0.1483 and 0.1622 and 0.1213
Inhibition of cAMP production measured using a CAMYEL BRET biosensor, Net BRET (D2LR [3]; time 9.18333 mins): 0.1415 and 0.1645 and 0.1136
Inhibition of cAMP production measured using a CAMYEL BRET biosensor, Net BRET (D2LR [3]; time 9.55 mins): 0.1361 and 0.1571 and 0.122
Inhibition of cAMP production measured using a CAMYEL BRET biosensor, Net BRET (D2LR [3]; time 9.91667 mins): 0.1368 and 0.1537 and 0.1212
Inhibition of cAMP production measured using a CAMYEL BRET biosensor, Net BRET (D2LR [3]; time 10.2833 mins): 0.1433 and 0.1558 and 0.1185
Inhibition of cAMP production measured using a CAMYEL BRET biosensor, Net BRET (D2LR [3]; time 10.65 mins): 0.1418 and 0.1582 and 0.1222
Inhibition of cAMP production measured using a CAMYEL BRET biosensor, Net BRET (D2LR [3]; time 11.0167 mins): 0.1356 and 0.1444 and 0.1266
Inhibition of cAMP production measured using a CAMYEL BRET biosensor, Net BRET (D2LR [3]; time 11.3833 mins): 0.1394 and 0.145 and 0.1251
Inhibition of cAMP production measured using a CAMYEL BRET biosensor, Net BRET (D2LR [3]; time 11.75 mins): 0.1471 and 0.1529 and 0.1151
Inhibition of cAMP production measured using a CAMYEL BRET biosensor, Net BRET (D2LR [3]; time 12.1167 mins): 0.148 and 0.1471 and 0.1222
Inhibition of cAMP production measured using a CAMYEL BRET biosensor, Net BRET (D2LR [3]; time 12.4833 mins): 0.1456 and 0.1415 and 0.132
Inhibition of cAMP production measured using a CAMYEL BRET biosensor, Net BRET (D2LR [3]; time 12.85 mins): 0.1323 and 0.1432 and 0.12
Inhibition of cAMP production measured using a CAMYEL BRET biosensor, Net BRET (D2LR [3]; time 13.2167 mins): 0.14 and 0.1381 and 0.1276
Inhibition of cAMP production measured using a CAMYEL BRET biosensor, Net BRET (D2LR [3]; time 13.5833 mins): 0.1427 and 0.1424 and 0.1286
Inhibition of cAMP production measured using a CAMYEL BRET biosensor, Net BRET (D2LR [3]; time 13.95 mins): 0.1347 and 0.1377 and 0.1287
Inhibition of cAMP production measured using a CAMYEL BRET biosensor, Net BRET (D2LR [3]; time 14.3167 mins): 0.1428
